What was measured:
[1] = tested on: ACAT; assay: ACAT activity in liver microsomes of fed rats; format: in vivo, rat
Method: To determine the effect of feeding NG5006 to rats on the activities of ACAT and HMG-CoA reductase, microsomes were separated from liver tissues to be used as an enzyme source.
1 g each of the livers taken from each group of rats of Example 12 was homogenized in 5 ml of homogenization medium(0. 1 M KH2PO4, pH 7.4, 0.1 mM EDTA and 10 mM β-mercaptoethanol). The homogenate was centrifuged at 3,000×g for 10 min. at 4° C. and the supernatant thus obtained was centrifuged at 15,000×g for 15 min. at 4° C. to obtain a supernatant. The supernatant was put into an ultracentrifuge tube(Beckman) and centrifuged at 100,000×g for 1 hour at 4° C. to obtain microsomal pellets, which were then suspended in 3 ml of the homogenization medium and centrifuged at 100,000×g for 1 hour at 4° C. The pellets thus obtained were suspended in 1 ml of the homogenization medium. The protein concentration of the resulting suspension was determined by Lowry's method and then adjusted to 4 to 8 mg/ml. The resulting suspension was stored in a deep freezer(Biofreezer, Forma Scientific Inc.).
6.67 μl of 1 mg/ml cholesterol solution in acetone was mixed with 6 μl of 10% Triton WR-1339(Sigma Co.) in acetone and then, acetone was removed from the mixture by evaporation under a nitrogen flow. Distilled water was added to the resulting mixture to adjust the concentration of cholesterol to […].
Added to 10 μl of the resulting aqueous cholesterol solution were 10 μl of 1 M KH2PO4(pH 7.4), 5 μl of 0.6 mM bovine serum albumin(BSA), 10 μl of microsome solution obtained in (Step 1) and 55 μl of distilled water(total 90 μl). The mixture was pre-incubated in a water bath at 37° C. for 30 min. […]
200 μl of the resulting supernatant was put in a scintillation bottle and 4 ml of scintillation fluid(Lumac Co.) was added thereto. The mixture was assayed for radioactivity with 1450 Microbeta liquid scintillation counter(Wallac Co., Finland). ACAT activity was calculated as picomoles of cholesteryl oleate synthesized per min. per mg protein(pmoles/min/mg protein).

[2] = tested on: ACAT; assay: ACAT activity in fed rabbits; format: in vivo, rabbit; conditions: rabbits fed 1% cholesterol plus 1 mg/kg Lovastatin or 0.1% NG5006, 8 weeks
Method: 22 three-month-old New Zealand White rabbits(Yeonam Horticulture and Animal Husbandry College, Korea) each weighing about 2.0 to 2.3 kg were bred under a condition of temperature 20±2° C., relative humidity 55±10%, and photoperiod 12L/12D. The rabbits were divided two groups of 6 rabbits and a group of 10 rabbits, and the rats of three groups were fed with three different diets, i.e., RC4 diet(Oriental Yeast Co., Japan) containing 1% cholesterol(Control group); 1% cholesterol plus 1 mg/kg Lovastatin® (Merck, U.S.A.)(Comparative group); and 1% cholesterol plus 0.1% NG5006, respectively. RC4 diet comprises 7.6% moisture, 22.8% crude protein, 2.8% crude fat, 8.8% crude ash, 14.4% crude cellulose and 43.6% soluble nitrogen-free substances. The rabbits were bred for 8 weeks while being allowed free access to the diets and water.
The effect of feeding NG5006 to rabbits on the activities of ACAT was determined using the rabbits bred in Step 1 of Example 14 in accordance with procedure disclosed in step 1 of Example 13.

[3] = tested on: ICR mice; assay: Toxicity of orally administered NG5006 in mice; format: in vivo, mouse; conditions: single oral dose 1, 2 and 4 g/kg
Method: 4 week-old, specific pathogen-free ICR female mice(12 heads) and male mice(12 heads) were bred under a condition of temperature 22±3° C., moisture 55±10% and photoperiod 12L/12D. Fodder(Cheiljedang Co., mouse and rat fodder) and water were sterilized and fed to the mice.
NG5006 was dissolved in 0.5% Tween 80 to a concentration of 100 mg/ml. The solution thus obtained was orally administered to the mice in amounts of 0.2 ml(1 g/kg), 0.4 ml(2 g/kg) and 0.8 ml(4g/kg) per 20 g of mouse body weight, respectively. […] The weight changes of the mice were recorded every day to examine the effect of NG5006. Further, on the 7th day, the mice were sacrificed and the internal organs were visually examined.

[4] = tested on: Sprague-Dawley rats; assay: Plasma total cholesterol, HDL-cholesterol and triglyceride levels in rats fed high-cholesterol diet; format: in vivo, rat
From the text: (Step 1) Administration of NG5006 to rats
30 four-week-old white Sprague-Dawley rats (Korea Institute of Science and Technology, Korea), each weighing about 90 to 120 g, were evenly divided into three dietary groups by a randomized block design. The rats of the three groups were fed with three different high-cholesterol diets, i.e., AIN-76 laboratory animal diet(ICN Biochemicals, Cleveland, Ohio, U.S.A.) containing 1% cholesterol(Control group), 1% cholesterol plus 0.02% naringenin and 1% cholesterol plus 0.036% NG5006, respectively.
The rats were allowed to feed freely on the specified diet together with water for six weeks, the ingestion amount was recorded daily and the rats were weighed every 7 days, and then the record was analyzed. […] (Step 2) Determination of total cholesterol, HDL-cholesterol and triglyceride contents in blood
The effects of administering naringenin or NG5006 to rats on the plasma cholesterol and triglyceride contents were determined as follows.
Blood samples were taken from the rats of the three dietary groups and total cholesterol level was determined by using Sigma Diagnostic Kit Cat. No. C0534(Sigma Chemical Co., U.S.A.). HDL fractions were separated therefrom by using HDL-cholesterol reagent(Sigma Chemical Co., Cat. No. 352-1) and HDL-cholesterol level was determined by using Sigma Diagnostic Kit Cat. No. C9908(Sigma Chemical Co., U.S.A.). Triglyceride level was determined by using Sigma Diagnostic Kit Cat. No. 336-10(Sigma Chemical Co., U.S.A.).

[5] = plasma, rats on 1% cholesterol diet plus 0.02% naringenin or 0.036% NG5006, six weeks
[6] = rats, 1% cholesterol diet, six weeks

CCCCCCCCCCCCCCCCOc1cc(O)c2c(c1)OC(c1ccc(O)cc1)CC2=O (stereo not shown) [NG5006, Naringenin 7-O-cetyl Ether]
ACAT activity lower than that of the control group ([1]; NG5006-fed rat group): 14% | ACAT activity ([1]; liver microsomes of rats fed 1% cholesterol plus 0.02% naringenin or 0.036% NG5006, six weeks): 149.7 ± 5.1 pmole/min/mg protein | ACAT activity [2]: 215.2 ± 30.3 pmole/min/mg protein | % Inhibition on ACAT Activity ([2]; versus control group): 16.2% | weight change ([3]; 7 day test period): no weight loss | survival ([3]; observed 7 days): All the mice were alive at day 7 | toxicity ([3]; observed 7 days): no toxicity | autopsy, pathological abnormality ([3]; sacrificed on the 7th day): did not develop any pathological abnormality | HDL-C (HDL-cholesterol) [4, 5]: 36.7 ± 1.3 mg/dL | HDL-C/Total-C [4, 5]: 20.4 ± 0.7% | TG (triglyceride) [4, 5]: 118.4 ± 3.4 mg/dL | Total-C (total cholesterol) [4, 5]: 183.5 ± 6.4 mg/dL | AI: Atherosclerosis Index (AI = (Total-C − HDL-C)/HDL-C) ([4]; rats on 1% cholesterol diet plus 0.02% naringenin or 0.036% NG5006, six weeks): 4.0 ± 0.2 | lowering blood lipid level, comparison in words [4, 6]: superior to naringenin in lowering blood lipid level | total plasma cholesterol level lower than in the Control group [4, 6]: 19% | triglyceride level lower than in the control group [4, 6]: 33%

Source: patent publication US6455577B2, “Flavanone derivatives and composition for preventing or treating blood lipid level-related diseases comprising same” (Korea Research Institute of Bioscience and Biotechnology, priority 2000, dated 2002)
